The values that follow come from ChEMBL document CHEMBL4190243, “Natural alkaloids as P-gp inhibitors for multidrug resistance reversal in cancer” (Eur J Med Chem, 2017).

The structures appear in SMILES notation. A value given as a limit tells only on which side of the number the result lay.

Series [1] is filed under the species Homo sapiens. The series can be described thus: Inhibition of P-gp in human Caco2 cells assessed as reduction in digoxin efflux at 4 uM relative to control. Type of series: cell-based.
For the next series, the target named is MRP2 (ABCC2) (Homo sapiens, UniProt Q92887). The series can be described thus: Inhibition of MRP2 in human Caco2 cells assessed as reduction in pravastatin sodium efflux at 4 uM relative to control. Type of series: cell-based. The following applies: Caco-2 cells, probe pravastatin sodium.
For series [2], the target named is T1, ATP-dependent translocase ABCB1 (Homo sapiens, UniProt P08183). Put plainly: Inhibition of MDR1 in human KB-C2 cells assessed as potentiation of vincristine-induced cytotoxicity by measuring fold reduction in vincristine IC50. Type of series: cell-based.
A further series relates to KB-V1. Put plainly: Downregulation of P-gp expression in human MDR KBV1 cells after 24 hrs relative to control. The class given is functional.
The test system of the next series is Rattus norvegicus. The series can be described thus: AUC (0 to 72 hrs) in rat at 50 mg/kg, po by LC-MS/MS method. Particulars: in vivo. The class given is ADME, organism-based. Also on record: time < 72 hr, dose 50 mg/kg, route oral.
Series [3] is described as follows: Cmax in rat at 50 mg/kg, po by LC-MS/MS method. The class given is ADME, organism-based. Particulars: in vivo. On the set-up: dose 50 mg/kg, route oral.
Series [4] is filed under the species Homo sapiens. The series can be described thus: Inhibition of P-gp in human MCF7/DOX cells assessed as potentiation of doxorubicin-induced cytotoxicity by measuring fold reduction in doxorubicin IC50 at 5 uM. Type of series: cell-based.
The species named for series [5] is Homo sapiens. The series can be described thus: Inhibition of P-gp in human MCF7/DOX cells assessed as potentiation of doxorubicin-induced cytotoxicity by measuring fold reduction in doxorubicin IC50 at 2.5 uM. The class given is cell-based.
A short description of series [6]: Tmax in rat at 50 mg/kg, po by LC-MS/MS method. Type of series: ADME, organism-based. Particulars: in vivo.
The nature of series [7]: Half life in rat at 50 mg/kg, po by LC-MS/MS method. The class given is ADME, organism-based. Particulars: in vivo.
Series [8] in a line: Half life in patient with advanced stage of cancer at 500 mg/m2 by HPLC method. Type of series: ADME, organism-based. The following applies: human, in vivo.
Another series relates to NCI/ADR-RES. The series can be described thus: Potentiation of doxorubicin-induced antitumor activity against human MCF7/ADR cells xenografted in nude mouse assessed as tumor growth inhibition at 30 mg/kg, ip every two days (reference value: -20%). The class given is functional. The following applies: 48 h, read-out: TGI.
The nature of series [9]: Potentiation of vincristine-induced antitumor activity against human KBv200 cells xenografted in Balb/c nude mouse assessed as tumor growth inhibition at 30 mg/kg, ip every two days (reference value: 20%). The class given is functional. The following applies: 48 h, read-out: TGI.
Series [10] is described as follows: Potentiation of paclitaxel-induced antitumor activity against human KBv200 cells in xenograft model assessed as tumor growth inhibition at 35 mg/kg, ip (reference value: 13%). Type of series: functional. Particulars: read-out: TGI.
The species entered for series [11] is Homo sapiens. The series can be described thus: Inhibition of P-gp in human Caco2 cells assessed as potentiation of doxorubicin-induced cytotoxicity by measuring fold reduction in doxorubicin IC50. Type of series: cell-based.
Series [12] is filed under the species Homo sapiens. The series can be described thus: Inhibition of P-gp in human CEM/DOX5000 cells assessed as potentiation of doxorubicin-induced cytotoxicity by measuring fold reduction in doxorubicin IC50. The class given is cell-based.
The nature of series [13]: Inhibition of P-gp in human Caco2 cells assessed as reduction in accumulation of Rh123 preincubated for 30 mins followed by Rh123 addition measured after 90 mins by fluorescence spectrofluorometric method. The class given is cell-based. Particulars: Caco-2.
Series [14] can be described thus: Inhibition of P-gp in human Caco2 cells assessed as reduction in accumulation of calcein-AM preincubated for 30 mins followed by Rh123 addition measured after 90 mins by fluorescence spectrofluorometric method. Particulars: Caco-2. Type of series: cell-based.
Series [15] can be described thus: Inhibition of P-gp in human HCT116/VM46 cells assessed as potentiation of paclitaxel-induced cytotoxicity. The class given is cell-based. Particulars: HCT-116/VM46.
The target in series [16] is T1, ATP-dependent translocase ABCB1. The series can be described thus: Inhibition of human MDR1 expressed in mouse L5178 cells assessed as accumulation of Rh123 by measuring fluorescence activity ratio preincubated for 10 mins followed by Rh123 addition measured after 20 mins by FACS analysis. Type of series: cell-based.
Series [17] can be described thus: Inhibition of P-gp in human MCF7/DX1 cells assessed as […] Rh123 accumulation after 30 to 40 mins by FACS analysis. The class given is cell-based.
The nature of series [18]: Inhibition of P-gp in human MCF7/DX1 cells assessed as [3H]daunomycin accumulation after 40 mins by liquid scintillation counting method. Type of series: cell-based.
Series [19] in a line: Inhibition of P-gp in human MCF7/DX1 cells assessed as doxorubicin accumulation after 30 to 40 mins by FACS analysis. The class given is cell-based.
Series [20] can be described thus: Inhibition of P-gp in human MCF7/DX1 cells assessed as BODIPY-FL-verapamil accumulation after 30 to 40 mins by FACS analysis. Type of series: cell-based.
Series [21] can be described thus: Inhibition of [125I]IAAP labeling to human P-gp expressed in baculovirus infected insect cell membranes after 10 mins.
Series [22] deals with T2, Broad substrate specificity ATP-binding cassette transporter ABCG2 (Homo sapiens, UniProt Q9UNQ0).
T2 sequence (Q9UNQ0 whole entry): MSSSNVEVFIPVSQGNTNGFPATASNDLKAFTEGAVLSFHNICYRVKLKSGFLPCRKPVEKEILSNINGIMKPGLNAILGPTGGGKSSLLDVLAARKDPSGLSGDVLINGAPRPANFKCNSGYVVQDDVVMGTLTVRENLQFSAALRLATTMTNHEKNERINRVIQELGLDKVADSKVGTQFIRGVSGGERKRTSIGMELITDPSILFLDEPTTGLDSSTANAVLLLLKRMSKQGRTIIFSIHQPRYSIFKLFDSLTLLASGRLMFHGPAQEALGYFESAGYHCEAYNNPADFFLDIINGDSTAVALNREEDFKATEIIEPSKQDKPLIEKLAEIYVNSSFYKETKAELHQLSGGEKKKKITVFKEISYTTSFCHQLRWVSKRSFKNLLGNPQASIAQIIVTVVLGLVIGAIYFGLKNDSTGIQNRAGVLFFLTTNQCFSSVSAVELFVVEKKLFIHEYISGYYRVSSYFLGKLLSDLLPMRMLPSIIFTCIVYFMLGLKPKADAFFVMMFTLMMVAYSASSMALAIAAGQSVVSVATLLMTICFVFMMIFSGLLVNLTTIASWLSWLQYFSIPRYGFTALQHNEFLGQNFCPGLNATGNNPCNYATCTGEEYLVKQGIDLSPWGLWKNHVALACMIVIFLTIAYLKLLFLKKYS
Put plainly: Inhibition of BCRP (unknown origin).

T1 sequence (P08183 whole entry): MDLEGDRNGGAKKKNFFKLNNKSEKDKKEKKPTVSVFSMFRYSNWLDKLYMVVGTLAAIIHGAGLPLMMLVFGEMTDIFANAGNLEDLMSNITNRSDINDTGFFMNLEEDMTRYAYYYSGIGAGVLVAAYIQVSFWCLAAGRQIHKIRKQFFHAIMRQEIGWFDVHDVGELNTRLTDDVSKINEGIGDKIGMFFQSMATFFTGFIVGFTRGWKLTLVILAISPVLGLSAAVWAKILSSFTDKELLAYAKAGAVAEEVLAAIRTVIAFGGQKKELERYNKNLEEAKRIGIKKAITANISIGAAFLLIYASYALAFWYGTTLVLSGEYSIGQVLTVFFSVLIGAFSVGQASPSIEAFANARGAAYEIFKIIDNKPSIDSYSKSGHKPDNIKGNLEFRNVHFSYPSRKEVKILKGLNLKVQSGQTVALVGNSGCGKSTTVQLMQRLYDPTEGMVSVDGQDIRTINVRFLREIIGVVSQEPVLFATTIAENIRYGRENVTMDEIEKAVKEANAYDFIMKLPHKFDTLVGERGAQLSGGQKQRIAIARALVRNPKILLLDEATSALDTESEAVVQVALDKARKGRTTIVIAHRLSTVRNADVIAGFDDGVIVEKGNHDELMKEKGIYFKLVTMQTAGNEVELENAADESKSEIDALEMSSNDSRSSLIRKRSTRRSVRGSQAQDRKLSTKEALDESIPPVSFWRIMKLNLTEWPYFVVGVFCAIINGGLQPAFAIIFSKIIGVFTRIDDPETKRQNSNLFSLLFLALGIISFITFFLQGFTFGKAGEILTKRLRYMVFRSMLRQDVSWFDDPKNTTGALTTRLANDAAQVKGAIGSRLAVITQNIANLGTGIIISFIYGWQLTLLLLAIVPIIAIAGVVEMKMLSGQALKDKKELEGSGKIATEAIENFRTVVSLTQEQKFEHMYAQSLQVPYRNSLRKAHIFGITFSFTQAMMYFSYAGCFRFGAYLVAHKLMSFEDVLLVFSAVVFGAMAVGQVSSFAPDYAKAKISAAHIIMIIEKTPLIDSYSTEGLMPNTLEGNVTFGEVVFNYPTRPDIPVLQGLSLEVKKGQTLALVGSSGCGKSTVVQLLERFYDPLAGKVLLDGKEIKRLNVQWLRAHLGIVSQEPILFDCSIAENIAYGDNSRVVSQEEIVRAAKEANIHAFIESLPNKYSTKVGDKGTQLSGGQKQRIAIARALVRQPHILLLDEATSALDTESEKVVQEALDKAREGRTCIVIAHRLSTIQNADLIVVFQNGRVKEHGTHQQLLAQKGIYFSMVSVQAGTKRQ
Sequence of MRP2 (ABCC2) (Q92887 whole entry): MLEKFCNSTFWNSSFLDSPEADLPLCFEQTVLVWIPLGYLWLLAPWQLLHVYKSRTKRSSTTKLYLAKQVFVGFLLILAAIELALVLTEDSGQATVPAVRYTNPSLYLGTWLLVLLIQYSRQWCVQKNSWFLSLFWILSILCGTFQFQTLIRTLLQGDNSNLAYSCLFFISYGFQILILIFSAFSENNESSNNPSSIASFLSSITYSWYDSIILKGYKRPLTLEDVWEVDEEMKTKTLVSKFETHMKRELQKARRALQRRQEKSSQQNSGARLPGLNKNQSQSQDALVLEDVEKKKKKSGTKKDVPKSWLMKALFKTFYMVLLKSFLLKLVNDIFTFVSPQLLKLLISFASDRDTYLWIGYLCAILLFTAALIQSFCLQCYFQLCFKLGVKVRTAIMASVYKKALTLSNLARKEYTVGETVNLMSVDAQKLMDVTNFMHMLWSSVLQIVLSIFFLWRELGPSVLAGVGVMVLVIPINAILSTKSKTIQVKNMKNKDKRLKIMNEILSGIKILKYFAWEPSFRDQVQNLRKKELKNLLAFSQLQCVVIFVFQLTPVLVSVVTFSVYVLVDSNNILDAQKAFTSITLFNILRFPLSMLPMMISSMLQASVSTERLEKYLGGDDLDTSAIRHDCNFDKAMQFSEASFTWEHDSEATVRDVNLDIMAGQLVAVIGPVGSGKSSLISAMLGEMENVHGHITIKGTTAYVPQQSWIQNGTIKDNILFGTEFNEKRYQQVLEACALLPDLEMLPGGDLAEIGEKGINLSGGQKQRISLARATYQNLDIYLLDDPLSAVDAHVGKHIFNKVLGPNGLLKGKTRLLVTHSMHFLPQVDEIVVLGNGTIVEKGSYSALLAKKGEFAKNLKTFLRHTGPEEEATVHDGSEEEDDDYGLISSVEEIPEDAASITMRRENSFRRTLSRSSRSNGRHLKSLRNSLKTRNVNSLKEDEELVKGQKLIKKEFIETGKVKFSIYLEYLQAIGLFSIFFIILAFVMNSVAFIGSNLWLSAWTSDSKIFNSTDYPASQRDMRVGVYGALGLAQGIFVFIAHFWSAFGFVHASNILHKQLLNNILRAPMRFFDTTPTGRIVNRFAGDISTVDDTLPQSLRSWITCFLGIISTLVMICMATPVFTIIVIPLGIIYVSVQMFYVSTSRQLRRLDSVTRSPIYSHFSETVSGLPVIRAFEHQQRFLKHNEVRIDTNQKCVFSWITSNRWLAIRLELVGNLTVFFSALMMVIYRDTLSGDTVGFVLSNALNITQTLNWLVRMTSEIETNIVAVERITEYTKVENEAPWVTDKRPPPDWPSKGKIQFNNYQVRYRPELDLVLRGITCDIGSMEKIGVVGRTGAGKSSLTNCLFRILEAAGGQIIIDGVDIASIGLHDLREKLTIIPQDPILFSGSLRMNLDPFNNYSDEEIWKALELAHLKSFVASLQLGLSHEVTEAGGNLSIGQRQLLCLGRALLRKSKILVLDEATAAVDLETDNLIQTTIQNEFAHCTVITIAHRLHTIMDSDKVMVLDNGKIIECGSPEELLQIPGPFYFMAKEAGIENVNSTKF

Consider `O=C1c2ccccc2-n2c1nc1ccccc1c2=O` [TRYPTANTHRIN], for which the inhibition in the series filed under Homo sapiens [1] was over 30%. In addition, the inhibition at 4 µM at MRP2 (ABCC2) was over 30%.
Regarding `COc1cc2c(cc1O)CCN[C@]21CS[C@@H]2c3c(OC(C)=O)c(C)c4c(c3[C@H](COC1=O)N1[C@@H]2[C@H]2c3c(cc(C)c(OC)c3O)C[C@@H]([C@@H]1O)N2C)OCO4` [TRABECTEDIN], the “fold change (FC)” value in [2] came out at 16.
For `CN[C@@H]1C[C@H]2O[C@@](C)([C@@H]1OC)n1c3ccccc3c3c4c(c5c6ccccc6n2c5c31)C(=O)NC4` [STAUROSPORINE], the Activity with KB-V1 amounted to 50%.
The molecule `COc1ccc2cc1Oc1ccc(cc1)C[C@@H]1c3cc(c(OC)cc3CCN1C)Oc1c(OC)c(OC)cc3c1[C@H](C2)N(C)CC3` [ISOTETRANDRINE] displayed an AUC in the series on Rattus norvegicus of 6279 µg/h/L. The molecule also showed a Cmax in [3] of 0.237 µg/mL. In addition, the fold change (FC) in the series filed under Homo sapiens [4] and in the series filed under Homo sapiens [5] was 20 in each case. In [6], the Tmax is 6 h. The half-life is 20 h in [7] and 120 to 168 h in [8]. The inhibition in vivo at 30 mg/kg was determined as 58% in the series with NCI/ADR-RES and 62% in series [9]. Also, in [10], the inhibition in vivo at 35 mg/kg stood at 76%.
For the molecule `CN1Cc2c(ccc3c2OCO3)C2C(O)Cc3cc4c(cc3C21)OCO4` (stereo not drawn) [CHELIDONINE (+)], the results for the fold change (FC) in the series filed under Homo sapiens [11] and in the series listed under Homo sapiens [12] were 6 and 3, respectively. Moreover, the figures for the IC50 in [13] and in [14] were 9 µM and 11 µM, respectively.
For the molecule `COc1ccc(C2=C(c3ccc(OC)c(OC)c3)C(=O)N(CCc3cc(Br)c(OCc4ccccc4)c(OCCN4CCOCC4)c3)C2=O)cc1OC`, in [15], the EC50 was 0.423 µM.
For `Cn1c2ccccc2c(=O)c2c(O)cc3c(c21)CC(C(C)(O)CO)O3` (stereo unspecified) [GRAVACRIDONDIOL], in series [16], the Ratio was determined as 1.72.
`COc1ccc2c3c1O[C@@H]1C[C@H](OC(=O)CCCCCCCCC(=O)O[C@H]4C=C[C@@]56CN(C)CCc7ccc(OC)c(c75)O[C@H]6C4)C=C[C@]31CN(C)CC2`: the IC50 in series [17] is 0.8 µM; in [18] it was 0.5 to 2 µM; in series [19] it was 0.5 to 2 µM; in series [20], 0.5 to 2 µM; in series [21], 0.5 µM.
`COC(=O)[C@H]1[C@H]2C[C@@H]3c4[nH]c5cc(OC)ccc5c4CCN3C[C@H]2C[C@@H](OC(=O)c2cc(OC)c(OC)c(OC)c2)[C@@H]1OC` [RESERPINE]: the IC50 in series [22] worked out at 12.6 µM.
